Key:
[1] = target: T1, Levetiracetam Binding Site (LBS), rat cerebral cortex membranes (Rattus norvegicus, UniProt Q02563); assay: LBS binding assay (competitive binding, [3H]-2-[4-(3-azidophenyl)-2-oxo-1-pyrrolidinyl]butanamide); details: 4° C., 120 min
T1 construct: The crude membrane pellet obtained is resuspended in 50 mmol/l Tris-HCl (pH 7.4); from tissue; host or cells: rat cerebral cortex crude membranes (male Sprague-Dawley)

[2] = system: audiogenic seizures in sound-susceptible mice; assay: Animal model of sound-susceptible mice (audiogenic seizures); format: in vivo; details: intraperitoneally 60 minutes before induction of audiogenic seizures; doses given in mol/kg
Source text: The activity of the compounds of formula I, or their pharmaceutically acceptable salts, as anticonvulsants can be determined in the audiogenic seizures model. The objective of this test is to evaluate the anticonvulsant potential of a compound by means of audiogenic seizures induced in sound-susceptible mice, a genetic animal model with reflex seizures. In this model of primary generalised epilepsy, seizures are evoked without electrical or chemical stimulation and the seizure types are, at least in part, similar in their clinical phenomenology to seizures occurring in man (Löscher W. & Schmidt D., Epilepsy Res. (1998), 2, p. 145-181; Buchhalter J. R., Epilepsia (1993), 34, S31-S41). Results obtained with compounds of formula I are indicative of a strong pharmacological effect.
The objective of this test is to evaluate the anticonvulsant potency of a compound in sound-susceptible mice, a genetic animal model with reflex seizures. In this model of primary generalised epilepsy, seizures are evoked without electrical or chemical stimulation and the seizure types are, at least in part, similar in their clinical phenomenology to seizures occuring in man (Löscher W. & Schmidt D., Epilepsy Res. (1998), 2, 145-181; Buchhalter J. R., Epilepsia (1993), 34, S31-S41).
Male or female genetically sound-sensitive mice (14-28 g; N=10), derived from a DBA strain originally selected by Dr. Lehmann of the Laboratory of Acoustic Physiology (Paris) and bred in the UCB Pharma Sector husbandry unit since 1978, are used. The experimental design consisted of several groups, one group receiving the vehicle control and the other groups different doses of the test-compound. The compounds are administered intraperitoneally 60 minutes before the induction of audiogenic seizures.
For testing, the animals are placed in small cages, one mouse per cage, in a sound-attenuated chamber. After a period of orientation of 30 seconds, the acoustic stimulus (90 dB, 10-20 kHz) is delivered for 30 seconds via loudspeakers positioned above each cage. During this interval, the mice are observed and the presence of the 3 phases of the seizure activity namely wild running, clonic and tonic convulsions, is recorded. The proportion of mice protected against wild running, clonic and tonic convulsions, respectively, is calculated.
For active compounds, an ED50 value, i.e. the dose producing 50% protection relative to the control group, together with 95% confidence limits, was calculated using a Probit Analysis (SAS/STAT® Software, version 6.09, PROBIT procedure) of the proportions of protected mice for each of the 3 phases of the seizure activity.

T1 sequence (Q02563 whole entry): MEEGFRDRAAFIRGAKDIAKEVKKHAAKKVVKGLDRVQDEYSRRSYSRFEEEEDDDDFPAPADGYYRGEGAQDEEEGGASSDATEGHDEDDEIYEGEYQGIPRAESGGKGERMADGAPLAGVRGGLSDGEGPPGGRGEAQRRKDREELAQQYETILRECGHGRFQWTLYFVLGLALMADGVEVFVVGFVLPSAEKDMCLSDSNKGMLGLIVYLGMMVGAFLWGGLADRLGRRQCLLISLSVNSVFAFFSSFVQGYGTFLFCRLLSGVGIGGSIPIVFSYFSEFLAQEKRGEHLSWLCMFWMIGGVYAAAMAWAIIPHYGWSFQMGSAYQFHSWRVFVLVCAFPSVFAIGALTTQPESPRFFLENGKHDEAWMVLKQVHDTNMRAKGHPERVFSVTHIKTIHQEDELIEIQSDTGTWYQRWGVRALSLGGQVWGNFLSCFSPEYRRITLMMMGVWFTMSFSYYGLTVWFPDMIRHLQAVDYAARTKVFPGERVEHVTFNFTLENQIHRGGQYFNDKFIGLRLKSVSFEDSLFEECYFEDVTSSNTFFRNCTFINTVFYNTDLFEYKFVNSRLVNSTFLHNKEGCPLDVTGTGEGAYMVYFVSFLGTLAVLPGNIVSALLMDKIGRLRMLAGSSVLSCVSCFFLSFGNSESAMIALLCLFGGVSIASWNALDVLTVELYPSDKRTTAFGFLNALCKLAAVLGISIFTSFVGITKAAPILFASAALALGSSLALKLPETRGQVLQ

Compound	pKi (affinity for the levetiracetam binding site) [1]	ED50 (dose producing 50% protection against audiogenic seizures) [2]	melting point [°C]
CCC1CC(=O)N([C@@H](CC)C(N)=O)C1 (stereo partly shown) [Compound 151]	Particular affinity	Particularly promising activity	–
CCC(C(N)=O)N1CC(c2cc(C(F)(F)F)cc(C(F)(F)F)c2)CC1=O (stereo not shown) [Compound 185]	Particular affinity	–	148.6
CC[C@@H](C(N)=O)N1CC(C=C(F)F)CC1=O (stereo partly drawn) [Compound 213, (2S)-2-(2-oxo-4-(2,2-difluorovinyl)-1-pyrrolidinyl)butanamide]	Particular affinity	Particularly promising activity	–
CC[C@@H](C(N)=O)N1CC(C)CC1=O (stereo partly shown) [35]	–	–	73.9
CCC(C(N)=O)N1CC(c2ccco2)CC1=O (stereo not shown) [Compound 195]	Particular affinity	Particularly promising activity	–
CCCC1CC(=O)N([C@@H](CC)C(N)=O)C1 (single isomer, unassigned) [Compound 158]	Particular affinity	Particularly promising activity	–
CCCC(CN[C@@H](CC)C(N)=O)CC(=O)OCC.Cl (stereo partly drawn) [AA 1, ethyl 3-({[(1S)-1-(aminocarbonyl)propyl]amino}methyl)hexanoate hydrochloride]	–	Particularly promising activity	–
CCCC(CN[C@@H](CC)C(N)=O)CC(=O)OC(C)C.Cl (mixture of isomers) [AA 5, isopropyl 3-({[(1S)-1-(aminocarbonyl)propyl]amino}methyl)hexanoate hydrochloride]	–	Particularly promising activity	–
CCC(C(N)=O)N1CC(c2ccco2)CC1=O (stereo not shown) [Compound 196]	Particular affinity	Particularly promising activity	–
CCCC(CN[C@@H](CC)C(N)=O)CC(=O)OCCC12CC3CC(CC(C3)C1)C2.Cl (mixture of isomers) [AA 3, 2-(1-adamantyl)ethyl 3-({[(1S)-1-(aminocarbonyl)propyl]amino}methyl)hexanoate hydrochloride]	–	Particularly promising activity	–
CCC(C(N)=O)N1CC(CC2CC2)CC1=O (stereo not shown) [Compound 165]	Particular affinity	Particularly promising activity	–
2-[4-(2,2-dibromovinyl)-2-oxo-1-pyrrolidinyl]butanamide [Compound 47]	Particular affinity	Particularly promising activity	–
CC[C@H](C(N)=O)N1CC(c2cccs2)CC1=O (stereo partly shown)	–	–	84
CC[C@@H](C(N)=O)N1CC(C)CC1=O (stereo partly shown) [36]	–	–	56.9
CCCC1CC(=O)N([C@@H](CC)C(N)=O)C1 (single isomer, unassigned) [Compound 159]	Particular affinity	Particularly promising activity	–
CC[C@@H](C(N)=O)N1CC(c2ccsc2)CC1=O (stereo partly shown) [Compound 88]	Particular affinity	Particularly promising activity	–
CCC1CC(=O)N([C@@H](CC)C(N)=O)C1 (stereo partly shown) [Compound 152]	Particular affinity	Particularly promising activity	–
(2S)-2-[4-(iodomethyl)-2-oxo-1-pyrrolidinyl]propanamide [Compound 110]	Particular affinity	Particularly promising activity	–

Compound	pKi (affinity for the levetiracetam binding site) [1]	ED50 (dose producing 50% protection against audiogenic seizures) [2]	melting point [°C]
CC[C@@H](C(N)=O)N1CC(n2cccc2)CC1=O (single isomer, unassigned) [Compound 223, 4-pyrol-pyrrolidin-2-one]	Particular affinity	Particularly promising activity	–
CCC(C(N)=O)N1CC(C=C(F)F)CC1=O (stereo not shown) [Compound 156]	Particular affinity	Particularly promising activity	–
CC[C@@H](C(N)=O)N1CC(CSC)CC1=O (stereo partly shown) [Compound 100]	Particular affinity	Particularly promising activity	–
CC[C@@H](C(N)=O)N1CC(CBr)CC1=O (stereo partly shown) [Compound 9]	Particular affinity	Particularly promising activity	–
(2S)-2-(2-oxo-4-(2,2-difluorovinyl)-1-pyrrolidinyl)butanamide [Compound 222]	Particular affinity	Particularly promising activity	–
CCCCOC(=O)CC(CCC)CN[C@@H](CC)C(N)=O.Cl (mixture of isomers) [AA 4, butyl 3-({[(1S)-1-(aminocarbonyl)propyl]amino}methyl)hexanoate hydrochloride]	–	Particularly promising activity	–
CCCC1CC(=O)N(C(CC)C(N)=O)C1 (stereo not shown) [Compound 201]	Particular affinity	Particularly promising activity	–
C#CC1CC(=O)N(C(CC)C(N)=O)C1 (stereo not shown) [Compound 207, 2-(4-ethynyl-2-oxo-1-pyrrolidinyl)butanamide]	Particular affinity	–	–
(2S)-2-[4-(iodomethyl)-2-oxo-pyrrolidin-1-yl]pentanamide [Compound 105]	Particular affinity	Particularly promising activity	–
CC[C@@H](C(N)=O)N1CC(n2cccc2Br)CC1=O (stereo partly drawn) [Compound 234, (2S)-2-[4-(2-bromo-1H-pyrrol-1-yl)-2-oxo-1-pyrrolidinyl]butanamide]	Particular affinity	Particularly promising activity	–
CCC(C(N)=O)N1CC(c2cccc(Cl)c2)CC1=O (stereo not shown) [Compound 204, 2-[4-(3-chlorophenyl)-2-oxo-1-pyrrolidinyl]butanamide]	Particular affinity	–	–
CCCC(CN[C@@H](CC)C(N)=O)CC(=O)OCC.Cl (stereo partly drawn) [AA 2, ethyl 3-({[(1S)-1-(aminocarbonyl)propyl]amino}methyl)hexanoate hydrochloride]	–	Particularly promising activity	–
CCC(C(N)=O)N1CC(C=C(C)C)CC1=O (stereo not shown) [Compound 163, 2-(2-oxo-4-(2,2-dimethylvinyl)-1-pyrrolidinyl)butanamide]	Particular affinity	–	–
CC[C@@H](C(N)=O)N1CC(CF)CC1=O (stereo partly shown)	–	–	87.1
CC[C@@H](C(N)=O)N1CC(CBr)CC1=O (stereo partly drawn) [Compound 8, (2S)-2-[4-(bromomethyl)-2-oxo-1-pyrrolidinyl]butanamide]	Particular affinity	–	–
CC[C@@H](C(N)=O)N1CC(CC(C)I)CC1=O (stereo partly drawn) [Compound 226, (2S)-2-[4-(2-iodopropyl)-2-oxo-1-pyrrolidinyl]butanamide]	Particular affinity	–	–
CCC(C(N)=O)N1CC(c2cccc(C)c2)CC1=O (stereo not shown) [Compound 174]	Particular affinity	–	–
